Source: patent US20260248787A9, “MEDICAMENT FOR TREATING CANCER COMPRISING OPTICALLY ACTIVE AZABICYCLO RING DERIVATIVE” (Sumitomo Pharma Co., Ltd., priority 2023, published 2026)

Test: Phase 1/2 first-in-human clinical study, safety evaluation (DLT, TEAE, SAE)
Method: Arm A: Patients without azole antifungal treatment within 7 days (or 21 days for isavuconazole) of first dose of the present compound
Arm B: Patients receiving posaconazole, voriconazole, or fluconazole antifungal prophylaxis at enrollment
The safety of each dose level also was evaluated by the SRC, which was comprised of all investigators participating in the study and selected Sponsor study team members. The dose recommended by the BLRM method was treated as guidance and was integrated with a clinical assessment of toxicity information and review of other available data, including safety, PK, pharmacodynamic, and laboratory data.
When the Dose Limiting Toxicity (DLT) evaluation for each cohort was completed, the SRC determined a next dose level based on the DLT and other available data, including safety, PK, pharmacodynamic, and laboratory data with reference to the Bayesian Logistic Regression Model (BLRM) recommendation.
Dose escalation decisions were made after all patients in a dose level cohort have at least completed Cycle 1. All available data were presented along with the BLRM predictions for toxicity probabilities at the potential next dose levels. The SRC then determined the dose(s) for the next cohort(s).

C=C1C[C@@H]2CC[C@H]1[C@@H](C(=O)N1CCC3(CC1)CN(c1ncncc1Oc1ccc(F)cc1C(=O)N(C(C)C)C(C)C)C3)N2 [the present compound, 5-fluoro-2-[(4-{7-[(1S,3S,4R)-5-methylidene-2-azabicyclo[2.2.2]octane-3-carbonyl]-2,7-diazaspiro[3.5]nonan-2-yl}pyrimidin-5-yl)oxy]-N,N-di(propan-2-yl)benzamide]
TEAE: Disease progression (Arm B N=10, ≥Grade 3): 2 (20.0) n (%)
TEAE: Dyspnoea (Arm B N=10, ≥Grade 3): 0 n (%)
TEAE: Epistaxis (Arm B N=10, ≥Grade 3): 0 n (%)
TEAE: Fatigue (Arm B N=10, ≥Grade 3): 0 n (%)
TEAE: Gastrointestinal disorders (Arm B N=10, ≥Grade 3): 0 n (%)
TEAE: General disorders and administration site disorders (Arm B N=10, ≥Grade 3): 2 (20.0) n (%)
TEAE: Headache (Arm B N=10, ≥Grade 3): 0 n (%)
TEAE: Hemorrhoids (Arm B N=10, ≥Grade 3): 0 n (%)
TEAE: Hypertriglyceridaemia (Arm B N=10, ≥Grade 3): 1 (10.0) n (%)
TEAE: Hypoalbuminaemia (Arm B N=10, ≥Grade 3): 0 n (%)
TEAE: Hypocalcaemia (Arm B N=10, ≥Grade 3): 1 (10.0) n (%)
TEAE: Hypomagnaesemia (Arm B N=10, ≥Grade 3): 0 n (%)
TEAE: Hyponatraemia (Arm B N=10, ≥Grade 3): 0 n (%)
TEAE: Infections and Infestations (Arm B N=10, ≥Grade 3): 4 (40.0) n (%)
TEAE: Investigations (Arm B N=10, ≥Grade 3): 1 (10.0) n (%)
TEAE: Metabolism and nutrition disorders (Arm B N=10, ≥Grade 3): 4 (40.0) n (%)
TEAE: Musculoskeletal and connective tissue disorders (Arm B N=10, ≥Grade 3): 1 (10.0) n (%)
TEAE: Nausea (Arm B N=10, ≥Grade 3): 0 n (%)
TEAE: Nervous System Disorders (Arm B N=10, ≥Grade 3): 0 n (%)
TEAE: Oedema peripheral (Arm B N=10, ≥Grade 3): 0 n (%)
TEAE: Pain in extremity (Arm B N=10, ≥Grade 3): 0 n (%)
TEAE: Platelet count decreased (Arm B N=10, ≥Grade 3): 0 n (%)
TEAE: Pneumonia (Arm B N=10, ≥Grade 3): 2 (20.0) n (%)
TEAE: Pruritus (Arm B N=10, ≥Grade 3): 0 n (%)
TEAE: Pyrexia (Arm B N=10, ≥Grade 3): 0 n (%)
TEAE: Respiratory, thoracic and mediastinal disorders (Arm B N=10, ≥Grade 3): 0 n (%)
TEAE: Sepsis (Arm B N=10, ≥Grade 3): 2 (20.0) n (%)
TEAE: Skin and subcutaneous tissue disorders (Arm B N=10, ≥Grade 3): 0 n (%)
TEAE: Stomatitis (Arm B N=10, ≥Grade 3): 0 n (%)
TEAE: Vomiting (Arm B N=10, ≥Grade 3): 0 n (%)
related TEAE: Aspartate aminotransferase increased (Arm B N=10, ≥Grade 3): 1 (10.0) n (%)
related TEAE: Blood and lymphatic system disorders (Arm B N=10, ≥Grade 3): 1 (10.0) n (%)
related TEAE: Decreased appetite (Arm B N=10, ≥Grade 3): 0 n (%)
related TEAE: Differentiation syndrome (Arm B N=10, ≥Grade 3): 0 n (%)
related TEAE: Gastrointestinal disorders (Arm B N=10, ≥Grade 3): 0 n (%)
related TEAE: General disorders and administration site conditions (Arm B N=10, ≥Grade 3): 0 n (%)
related TEAE: Headache (Arm B N=10, ≥Grade 3): 0 n (%)
related TEAE: Hypertriglyceridaemia (Arm B N=10, ≥Grade 3): 1 (10.0) n (%)
related TEAE: Hyperuricaemia (Arm B N=10, ≥Grade 3): 0 n (%)
related TEAE: Increased appetite (Arm B N=10, ≥Grade 3): 0 n (%)
related TEAE: Investigations (Arm B N=10, ≥Grade 3): 1 (10.0) n (%)
related TEAE: Leukocytosis (Arm B N=10, ≥Grade 3): 1 (10.0) n (%)
related TEAE: Metabolism and nutrition disorders (Arm B N=10, ≥Grade 3): 1 (10.0) n (%)
related TEAE: Nausea (Arm B N=10, ≥Grade 3): 0 n (%)
related TEAE: Neoplasms benign, malignant and unspecified (incl cysts and polyps) (Arm B N=10, ≥Grade 3): 0 n (%)
related TEAE: Nervous system disorders (Arm B N=10, ≥Grade 3): 0 n (%)
related TEAE: Thirst (Arm B N=10, ≥Grade 3): 0 n (%)
related TEAE: Vomiting (Arm B N=10, ≥Grade 3): 0 n (%)
TEAE: Hypokalaemia (Arm B N=10, ≥Grade 3 (not related to the present compound)): 3 (30.0)*^3 n (%)
Hematological TEAE regardless of causality: Anaemia (N=57, Any Grade): 9 (15.8%) n (%)
Hematological TEAE regardless of causality: Febrile neutropenia (N=57, Any Grade): 12 (21.1%) n (%)
Hematological TEAE regardless of causality: Leukocytosis (N=57, Any Grade): 10 (17.5%) n (%)
Hematological TEAE regardless of causality: Neutrophil count decreased (N=57, Any Grade): 7 (12.3%) n (%)
Hematological TEAE regardless of causality: Platelet count decreased (N=57, Any Grade): 9 (15.8%) n (%)
Non-hematological TEAE regardless of causality: Arthralgia (N=57, Any Grade): 6 (10.5%) n (%)
Non-hematological TEAE regardless of causality: Back pain (N=57, Any Grade): 8 (14.0%) n (%)
Non-hematological TEAE regardless of causality: COVID-19 (N=57, Any Grade): 6 (10.5%) n (%)
Non-hematological TEAE regardless of causality: Constipation (N=57, Any Grade): 11 (19.3%) n (%)
Non-hematological TEAE regardless of causality: Cough (N=57, Any Grade): 7 (12.3%) n (%)
Non-hematological TEAE regardless of causality: Decreased appetite (N=57, Any Grade): 15 (26.3%) n (%)
Non-hematological TEAE regardless of causality: Diarrhoea (N=57, Any Grade): 10 (17.5%) n (%)
Non-hematological TEAE regardless of causality: Dizziness (N=57, Any Grade): 8 (14.0%) n (%)
Non-hematological TEAE regardless of causality: Dysgeusia (N=57, Any Grade): 6 (10.5%) n (%)
Non-hematological TEAE regardless of causality: Dyspnoea (N=57, Any Grade): 13 (22.8%) n (%)
Non-hematological TEAE regardless of causality: Electrocardiogram QT prolonged (N=57, Any Grade): 7 (12.3%) n (%)
Non-hematological TEAE regardless of causality: Epistaxis (N=57, Any Grade): 10 (17.5%) n (%)
Non-hematological TEAE regardless of causality: Fatigue (N=57, Any Grade): 10 (17.5%) n (%)
Non-hematological TEAE regardless of causality: Haemorrhage intracranial (N=57, Any Grade): 6 (10.5%) n (%)
Non-hematological TEAE regardless of causality: Headache (N=57, Any Grade): 15 (26.3%) n (%)
Non-hematological TEAE regardless of causality: Hypertension (N=57, Any Grade): 8 (14.0%) n (%)
Non-hematological TEAE regardless of causality: Hypotension (N=57, Any Grade): 7 (12.3%) n (%)
Non-hematological TEAE regardless of causality: Muscular weakness (N=57, Any Grade): 9 (15.8%) n (%)
Non-hematological TEAE regardless of causality: Myalgia (N=57, Any Grade): 6 (10.5%) n (%)
Non-hematological TEAE regardless of causality: Nausea (N=57, Any Grade): 23 (40.4%) n (%)
Non-hematological TEAE regardless of causality: Oedema peripheral (N=57, Any Grade): 9 (15.8%) n (%)
Non-hematological TEAE regardless of causality: Pain in extremity (N=57, Any Grade): 8 (14.0%) n (%)
Non-hematological TEAE regardless of causality: Pneumonia (N=57, Any Grade): 10 (17.5%) n (%)
Non-hematological TEAE regardless of causality: Pyrexia (N=57, Any Grade): 9 (15.8%) n (%)
Non-hematological TEAE regardless of causality: Sepsis (N=57, Any Grade): 11 (19.3%) n (%)
Non-hematological TEAE regardless of causality: Stomatitis (N=57, Any Grade): 11 (19.3%) n (%)
Non-hematological TEAE regardless of causality: Vomiting (N=57, Any Grade): 20 (35.1%) n (%)
Non-hematological laboratory change regardless of causality: ALT increase (N=57, Any Grade): 28 (49.1%) n (%)
Non-hematological laboratory change regardless of causality: AST increase (N=57, Any Grade): 23 (40.4%) n (%)
Non-hematological laboratory change regardless of causality: Hypertriglyceridemia (N=57, Any Grade): 45 (7.9%) n (%)
Non-hematological laboratory change regardless of causality: Hypocalcemia (N=57, Any Grade): 33 (57.9%) n (%)
Non-hematological laboratory change regardless of causality: Hypokalemia (N=57, Any Grade): 34 (7.0%) n (%)
Non-hematological laboratory change regardless of causality: Hypomagnesemia (N=57, Any Grade): 26 (4.6%) n (%)
Non-hematological laboratory change regardless of causality: Hyponatremia (N=57, Any Grade): 32 (56.1%) n (%)
Non-hematological laboratory change regardless of causality: Hypophosphatemia (N=57, Any Grade): 19 (33.3%) n (%)
Treatment related adverse event: Nausea (N=57, Any Grade): 10 (17.5%) n (%)
Treatment related adverse event: Vomiting (N=57, Any Grade): 7 (12.3%) n (%)
Hematological TEAE regardless of causality: Anaemia (N=57, Grade ≥3): 8 (14.0%) n (%)
Hematological TEAE regardless of causality: Febrile neutropenia (N=57, Grade ≥3): 12 (21.1%) n (%)
Hematological TEAE regardless of causality: Leukocytosis (N=57, Grade ≥3): 4 (7.0%) n (%)
Hematological TEAE regardless of causality: Neutrophil count decreased (N=57, Grade ≥3): 6 (10.5%) n (%)
Hematological TEAE regardless of causality: Platelet count decreased (N=57, Grade ≥3): 8 (14.0%) n (%)
Non-hematological TEAE regardless of causality: Arthralgia (N=57, Grade ≥3): 1 (1.8%) n (%)
Non-hematological TEAE regardless of causality: Back pain (N=57, Grade ≥3): 1 (1.8%) n (%)
